Test results reported in patent US20240207245A1, “METHOD FOR INHIBITING METASTASIS OF TRIPLE-NEGATIVE BREAST CANCER USING ROSOXACIN” (National Yang Ming Chiao Tung University, priority 2022, published 2024).

Columns and labels:
Format in all cases: cell-based, human
[1] = test system: highly metastatic breast cancer cell line (HMB cells); experiment: Tumor-sphere formation assay, LPS-induced, HMB cells; conditions: LPS 1 μM + rosoxacin 1 μM, 21 days, compared with control group H2 (LPS only), FIG. 3
Protocol: (§1) In addition, the highly metastatic breast cancer cell line (abbreviated as HMB cells) used in the following experiments was obtained according to the following preparation processes: the MDA-MB-231 cells (2.5×10^6 cells) were injected into the mammary fat pad of a severe combined immune deficient (SCID) mice (purchased from BioLasco Taiwan Co., Ltd; 4 weeks old, with a body weight of approximately 20 g), and the triple-negative breast cancer cells metastasized to the lung of the SCID mice were harvested after 12 weeks. Next, the triple-negative breast cancer cells (2.5×10^6 cells) thus obtained were injected into the mammary fat pad of another SCID mice, and the HMB cells metastasized to the lung of the another SCID mice were harvested after 8 weeks.
The sphere formation medium used in this example was prepared by supplementing Gibco DMEM/F-12 medium with the ingredients shown in Table 3.
The HMB cells prepared in section 1 of “General Experimental Materials” were divided into three groups, namely, two control groups (i.e., control groups H1 and H2) and one experimental group (i.e., experimental group H). […]
The number of tumor spheres was counted under a Leica DMI3000 B inverted microscope (Leica Microsystems, Wetzlar, Germany) at 100× magnification.
(§2) The data thus obtained were analyzed according to the method described in section 1 of “General Procedures”.

MDA-MB-231 cells = experiment: Transwell Matrigel cell invasion assay, LPS-induced, MDA-MB-231 cells; conditions: LPS 1 μM + rosoxacin 1 μM, 24 hours, compared with control group M2 (LPS only), FIG. 2
Source text: Human breast cancer cell line MDA-MB-231 (ATCC HTB-26) was purchased from American Type Culture Collection (ATCC, Manassas, Va., USA).
The HMB cells prepared in section 1 of “General Experimental Materials” were divided into 8 groups, namely, two control groups (i.e., control groups H1 and H2), one experimental group (i.e., experimental group H), and five comparative groups (i.e., comparative groups H1 to H5). In addition, the MDA-MB-231 cells prepared in section 1 of “General Experimental Materials” were divided into three groups, namely, two control groups (i.e., control groups M1 and M2) and one experimental group (i.e., experimental group M). […]
Subsequently, the culture medium in each Transwell® insert was removed, and the respective Transwell® insert was washed with phosphate-buffered saline (PBS). […] The number of the stained cells was counted under a Leica DMI3000 B inverted microscope (Leica Microsystems, Wetzlar, Germany) at 100× magnification, followed by analysis using Image-Pro Software (version 6.0).
The cell invasion percentage (%) of each group was calculated by substituting the thus obtained number of stained cells into the following Equation (I): […]
as §2

[2] = test system: highly metastatic breast cancer cell line (HMB cells); experiment: Transwell Matrigel cell invasion assay, LPS-induced, HMB cells; conditions: LPS 1 μM + quinolone antibiotic 1 μM, 24 hours, compared with control group H2 (LPS only), FIG. 1
Protocol: as §1
The HMB cells prepared in section 1 of “General Experimental Materials” were divided into 8 groups, namely, two control groups (i.e., control groups H1 and H2), one experimental group (i.e., experimental group H), and five comparative groups (i.e., comparative groups H1 to H5). In addition, the MDA-MB-231 cells prepared in section 1 of “General Experimental Materials” were divided into three groups, namely, two control groups (i.e., control groups M1 and M2) and one experimental group (i.e., experimental group M).
Each group of the cells was seeded at a concentration of 1×10^5 cells per well into respective permeable Transwell® insert (Corning Inc.) for a 24-well plate.
Thereafter, the Transwell® inserts were placed into the 24-well plate that contained 0.6 mL of DMEM supplemented with 10% FBS in each well, followed by cultivation in a humidified incubator (37° C., 5% CO2, 95% relative humidity) for 24 hours.
Subsequently, the culture medium in each Transwell® insert was removed, and the respective Transwell® insert was washed with phosphate-buffered saline (PBS). The cells migrating through the polycarbonate membrane and attaching to the bottom side of the polycarbonate membrane were subjected to a fixation treatment with a 4% formaldehyde solution (in PBS) at room temperature for 15 minutes. Then, the non-migrating cells were removed using a cotton swab, followed by conducting staining using a 1% crystal violet solution according to techniques well-known to those skilled in the art. The number of the stained cells was counted under a Leica DMI3000 B inverted microscope (Leica Microsystems, Wetzlar, Germany) at 100× magnification, followed by analysis using Image-Pro Software (version 6.0).
The cell invasion percentage (%) of each group was calculated by substituting the thus obtained number of stained cells into the following Equation (I):
[formula] • where A=cell invasion percentage (%) • B=number of stained cells in respective group • C=number of stained cells in the control group H1 or the control group M1
as §2

SMILES	number of tumor spheres [1]	cell invasion percentage (MDA-MB-231 cells)	cell invasion percentage [2]
CCn1cc(C(=O)O)c(=O)c2ccc(-c3ccncc3)cc21 [rosoxacin, 1-ethyl-4-oxo-7-(4-pyridyl)-1,4-dihydroquinoline-3-carboxylic acid]	significantly lower than that determined in the control group H2	significantly lower than that determined in the control group M2	significantly lower than that determined in the control group H2
COc1c(N2CCNC(C)C2)c(F)cc2c(=O)c(C(=O)O)cn(C3CC3)c12 (stereo not shown) [Gatifloxacin]	–	–	substantially similar to that determined in the control group H2
NC1CCN(c2c(F)cc3c(=O)c(C(=O)O)cn(C4CC4)c3c2Cl)C1 (stereo not shown) [Clinafloxacin]	–	–	significantly higher than that determined in the control group H2
CCn1cc(C(=O)O)c(=O)c2cc(F)c(N3CCNCC3)cc21 [Norfloxacin]	–	–	substantially similar to that determined in the control group H2
C[C@H]1NCc2cc(-c3ccc4c(=O)c(C(=O)O)cn(C5CC5)c4c3OC(F)F)ccc21 [Garenoxacin]	–	–	substantially similar to that determined in the control group H2
